From ChEMBL document CHEMBL3085716, “Hytramycins V and I, anti-Mycobacterium tuberculosis hexapeptides from a Streptomyces hygroscopicus strain” (J Nat Prod, 2013)
≈ marks a conversion by molar mass, not a printed value.

What was measured:
Assay type in all cases: functional
[1] = tested on: Mycobacterium tuberculosis; test: Antimycobacterial activity against kanamycin-resistant Mycobacterium tuberculosis ATCC 35827 under normoxic condition after 7 days by MABA assay; settings: ATCC 35827, 168 h
[2] = tested on: Mycobacterium tuberculosis; test: Antimycobacterial activity against Mycobacterium tuberculosis harboring luxABCDE under hypoxic condition after 10 days by MABA assay in presence of 4% bovine serum albumin; settings: 240 h
[3] = tested on: Mycobacterium tuberculosis; test: Antimycobacterial activity against Mycobacterium tuberculosis harboring luxABCDE under hypoxic condition after 10 days by MABA assay in presence of 10% fetal bovine serum; settings: 240 h
[4] = tested on: Mycobacterium tuberculosis; test: Ratio of MIC for Mycobacterium tuberculosis harboring luxABCDE under hypoxic condition in presence of 4% bovine serum albumin to MIC for Mycobacterium tuberculosis harboring luxABCDE under hypoxic condition in absence of 4% bovine serum albumin by MABA assay
[5] = tested on: Mycobacterium tuberculosis; test: Antimycobacterial activity against streptomycin-resistant Mycobacterium tuberculosis ATCC 35820 under normoxic condition after 7 days by MABA assay; settings: ATCC 35820, 168 h
[6] = tested on: Mycobacterium tuberculosis; test: Antimycobacterial activity against cycloserine-resistant Mycobacterium tuberculosis ATCC 35826 under normoxic condition after 7 days by MABA assay; settings: ATCC 35826, 168 h
[7] = tested on: Mycobacterium tuberculosis; test: Ratio of MIC for Mycobacterium tuberculosis harboring luxABCDE under hypoxic condition in presence of 10% fetal bovine serum to MIC for Mycobacterium tuberculosis harboring luxABCDE under hypoxic condition in absence of 10% fetal bovine serum by MABA assay
[8] = tested on: Mycobacterium tuberculosis; test: Antimycobacterial activity against capreomycin-resistant Mycobacterium tuberculosis under normoxic condition after 7 days by MABA assay; settings: 168 h
[9] = tested on: Mycobacterium tuberculosis; test: Antimycobacterial activity against isoniazid-resistant Mycobacterium tuberculosis ATCC 35822 under normoxic condition after 7 days by MABA assay; settings: ATCC 35822, 168 h
[10] = tested on: Mycobacterium tuberculosis; test: Antimycobacterial activity against moxifloxacin-resistant Mycobacterium tuberculosis under normoxic condition after 7 days by MABA assay; settings: 168 h
[11] = tested on: Mycobacterium tuberculosis; test: Antimycobacterial activity against rifampin-resistant Mycobacterium tuberculosis ATCC 35838 under normoxic condition after 7 days by MABA assay; settings: ATCC 35838, 168 h
[12] = tested on: Mycobacterium tuberculosis; test: Antimycobacterial activity against Mycobacterium tuberculosis harboring luxABCDE under hypoxic condition after 10 days by MABA assay; settings: for MIC90: Mycobacterium tuberculosis, 240 h

Structure (SMILES): CC(C)C[C@@H]1NC(=O)[C@H]2CCCNN2C(=O)[C@H](C)N(C)C(=O)[C@H]2CCCNN2C(=O)[C@@H]2CCCNN2C(=O)[C@@H](C(C)C)NC1=O
- MIC90 [1]: 12.4 µg/mL (≈ 19.6 µM)
- MIC90 [2]: 19.1 µg/mL
- MIC90 [3]: 20.9 µg/mL
- Ratio [4]: 10
- MIC90 [5]: 11.6 µg/mL (≈ 18.3 µM)
- MIC90 [6]: 20.6 µg/mL (≈ 32.5 µM)
- Ratio [7]: 10
- MIC90 [8]: 12.1 µg/mL (≈ 19.1 µM)
- MIC90 [9]: 12.1 µg/mL (≈ 19.1 µM)
- MIC90 [10]: 9 µg/mL (≈ 14.2 µM)
- MIC90 [11]: 9.6 µg/mL (≈ 15.1 µM)
- MBC90 [12]: 19.5 µg/mL (≈ 30.8 µM)
- MIC90 [12]: 2.4 µg/mL (≈ 3.79 µM)

Structure (SMILES): CC[C@H](C)[C@H]1NC(=O)[C@H](CC(C)C)NC(=O)[C@H]2CCCNN2C(=O)[C@H](C)N(C)C(=O)[C@H]2CCCNN2C(=O)[C@@H]2CCCNN2C1=O
- MIC90 [1]: 4.9 µg/mL (≈ 7.56 µM)
- MIC90 [2]: 10.8 µg/mL
- MIC90 [3]: 9.9 µg/mL
- Ratio [4]: 10
- MIC90 [5]: 4.7 µg/mL (≈ 7.26 µM)
- MIC90 [6]: 7.4 µg/mL (≈ 11.4 µM)
- Ratio [7]: 10
- MIC90 [8]: 4.8 µg/mL (≈ 7.41 µM)
- MIC90 [9]: 4.7 µg/mL (≈ 7.26 µM)
- MIC90 [10]: 4 µg/mL (≈ 6.17 µM)
- MIC90 [11]: 4.7 µg/mL (≈ 7.26 µM)
- MBC90 [12]: 10.5 µg/mL (≈ 16.2 µM)
- MIC90 [12]: 1.5 µg/mL (≈ 2.32 µM)

Structure (SMILES): NNC(=O)c1ccncc1 [ISONIAZID]
- MIC90 [1]: 0.1 µg/mL (≈ 0.729 µM)
- MIC90 [2]: > 140 µg/mL
- MIC90 [3]: > 140 µg/mL
- MIC90 [5]: 0.03 µg/mL (≈ 0.219 µM)
- MIC90 [6]: 0.03 µg/mL (≈ 0.219 µM)
- MIC90 [8]: 0.1 µg/mL (≈ 0.729 µM)
- MIC90 [9]: > 1.1 µg/mL
- MIC90 [10]: 0.1 µg/mL (≈ 0.729 µM)
- MIC90 [11]: 0.1 µg/mL (≈ 0.729 µM)
- MIC90 [12]: > 140 µg/mL

Structure (SMILES): Cc1ncc([N+](=O)[O-])n1CCO [METRONIDAZOLE]
- MIC90 [1]: > 87.6 µg/mL
- MIC90 [2]: 13.5 µg/mL
- MIC90 [3]: 5.3 µg/mL
- MIC90 [5]: > 87.6 µg/mL
- MIC90 [6]: > 87.6 µg/mL
- MIC90 [8]: > 87.6 µg/mL
- MIC90 [9]: > 87.6 µg/mL
- MIC90 [10]: > 87.6 µg/mL
- MIC90 [11]: > 87.6 µg/mL
- MIC90 [12]: > 87.6 µg/mL

Structure (SMILES): CO[C@H]1/C=C/O[C@@]2(C)Oc3c(C)c(O)c4c(O)c(c(/C=N/N5CCN(C)CC5)c(O)c4c3C2=O)NC(=O)/C(C)=C\C=C\[C@H](C)[C@H](O)[C@@H](C)[C@@H](O)[C@@H](C)[C@H](OC(C)=O)[C@@H]1C [RIFAMPIN]
- MIC90 [1]: < 0.01 µg/mL
- MIC90 [2]: 0.2 µg/mL
- MIC90 [3]: 0.1 µg/mL
- MIC90 [5]: < 0.01 µg/mL
- MIC90 [6]: < 0.01 µg/mL
- MIC90 [8]: 0.04 µg/mL (≈ 0.0486 µM)
- MIC90 [9]: 0.01 µg/mL (≈ 0.0122 µM)
- MIC90 [10]: 0.1 µg/mL (≈ 0.122 µM)
- MIC90 [11]: > 3.3 µg/mL
- MBC90 [12]: 0.5 µg/mL (≈ 0.608 µM)
- MIC90 [12]: < 0.1 µg/mL

Structure (SMILES): CN[C@@H]1[C@H](O[C@H]2[C@H](O[C@H]3[C@H](O)[C@@H](O)[C@H](N=C(N)N)[C@@H](O)[C@@H]3N=C(N)N)O[C@@H](C)[C@]2(O)C=O)O[C@@H](CO)[C@H](O)[C@H]1O [STREPTOMYCIN]
- MIC90 [1]: 1.1 µg/mL (≈ 1.89 µM)
- MIC90 [2]: 0.4 µg/mL
- MIC90 [3]: 0.6 µg/mL
- MIC90 [5]: > 9.3 µg/mL
- MIC90 [6]: 0.4 µg/mL (≈ 0.688 µM)
- MIC90 [8]: 1.1 µg/mL (≈ 1.89 µM)
- MIC90 [9]: 0.1 µg/mL (≈ 0.172 µM)
- MIC90 [10]: 0.5 µg/mL (≈ 0.86 µM)
- MIC90 [11]: 0.1 µg/mL (≈ 0.172 µM)
- MIC90 [12]: 0.6 µg/mL (≈ 1.03 µM)
